Reference: patent US20140296065A1, “USE OF 5-FLUOROCYTOSINE AS A FUNGICIDE” (DOW AGROSCIENCES LLC, priority 2008, published 2014)
Read-outs that look alike come from different tables or passages of the source.

Columns and labels:
Type in all cases: in vivo
[1] = tested on: Mycosphaerella graminicola; anamorph: Septoria tritici; Bayer code SEPTTR; assay: Leaf Blotch of Wheat fungicidal activity; settings: for pest or weed control at 100 ppm: Zymoseptoria tritici
Procedure: (§1) For the following examples, 5-fluorocytosine or a 5-fluorocytosine derivative was either dissolved in acetone or water, and dilutions were performed to obtain desirable rates. The spray solutions contained either 0.01% triton X-100 or 0.1% Trycol 5941. For high-volume spray, plants were sprayed to run-off using an automated booth sprayer. For a low-volume test, fungicide was applied using a track sprayer with application volume of 200 liters/hectare (L/H).
(§2) Plants were inoculated with fungal pathogens either 3 days before compound application (3-day curative test; 3DC) or 1 day after compound application (1-day protectant test; 1DP).
• 1. Evaluation of Fungicidal Activity: Leaf Blotch of Wheat (Mycosphaerella graminicola; anamorph: Septoria tritici; Bayer code SEPTTR):
Wheat plants (variety Yuma) were grown from seed in a greenhouse in 50% mineral soil/50% soil-less Metro mix until the first leaf was fully emerged, with 7-10 seedlings per pot. These plants were inoculated with an aqueous spore suspension of Septoria tritici either prior to or after fungicide treatments. After inoculation the plants were kept in 100% relative humidity (one day in a dark dew chamber followed by two to three days in a lighted dew chamber) to permit spores to germinate and infect the leaf. The plants were then transferred to a greenhouse for disease to develop. • 2. Evaluation of Fungicidal Activity: Glume Blotch of Wheat (Leptosphaeria nodorum; Bayer code LEPTNO; anamorph: Stagonospora nodorum):
(§3) The following tables present the activity of 5-fluorocytosine (Table I) or a 5-fluorocytosine derivative (Table II) when evaluated in these experiments. The effectiveness of 5-fluorocytosine or 5-fluorocytosine derivative in controlling disease was determined by assessing the severity of disease on treated plants, then converting the severity to percent control based on the level of disease on untreated, inoculated plants. • In each case of Tables I and II the rating scale is as follows: […]

[2] = tested on: Leptosphaeria nodorum; Bayer code LEPTNO; anamorph: Stagonospora nodorum; assay: Glume Blotch of Wheat fungicidal activity; settings: 100 ppm
Procedure: as §1, §2
Wheat plants (variety Yuma) were grown from seed in a greenhouse in 50% mineral soil/50% soil-less Metro mix until the first leaf was fully emerged, with 7-10 seedlings per pot. […]
as §3

[3] = tested on: Cochliobolus sativum; Bayer code COCHSA; anamorph: Helminthosporium sativum; assay: Spot Blotch of Barley fungicidal activity; settings: 200 ppm, 1DP (1-day protectant)
Procedure: For the following examples, 5-fluorocytosine or a 5-fluorocytosine derivative was either dissolved in acetone or water, and dilutions were performed to obtain desirable rates. The spray solutions contained either 0.01% triton X-100 or 0.1% Trycol 5941. For high-volume spray, plants were sprayed to run-off using an automated booth sprayer. For a low-volume test, fungicide was applied using a track sprayer with application volume of 200 liters/hectare (L/H). Plants were inoculated with fungal pathogens either 3 days before compound application (3-day curative test; 3DC) or 1 day after compound application (1-day protectant test; 1DP). […] Evaluation of Fungicidal Activity: Leaf Spot of Sugar Beets (Cercospora beticola; Bayer code CERCBE): The following tables present the activity of 5-fluorocytosine (Table I) or a 5-fluorocytosine derivative (Table II) when evaluated in these experiments. The effectiveness of 5-fluorocytosine or 5-fluorocytosine derivative in controlling disease was determined by assessing the severity of disease on treated plants, then converting the severity to percent control based on the level of disease on untreated, inoculated plants. • In each case of Tables I and II the rating scale is as follows: […]

[4] = tested on: Mycosphaerella fijiensis; BAYER code MYCOFI; assay: Black Sigatoka Disease of Banana fungicidal activity
Procedure: as §1
Plants were inoculated with fungal pathogens either 3 days before compound application (3-day curative test; 3DC) or 1 day after compound application (1-day protectant test; 1DP). […]
Efficacy against Mycosphaerella fijiensis was tested using newly emerged leaves of field grown banana plants. […] The leaves were subsequently allowed to become infected by natural inoculum, and were visually assessed for percent disease control ˜40-45 days later.
as §3

[5] = tested on: Cercospora beticola; Bayer code CERCBE; assay: Leaf Spot of Sugar Beets fungicidal activity; settings: 100 ppm, 1DP (1-day protectant)
[6] = tested on: Glomerella lagenarium; anamorph: Colletotrichum lagenarium; Bayer code COLLLA; assay: Cucumber Anthracnose fungicidal activity; settings: 200 ppm, 1DP (1-day protectant)
[7] = tested on: Venturia inaequalis; Bayer code VENTIN; assay: Apple Scab fungicidal activity; settings: 75 ppm
[8] = 24 h, SEPTTR, wheat, 100 ppm, One-Day Protectant (1DP), % disease control rating, read-out: SEPTTR 100 PPM 1DP
[9] = 72 h, SEPTTR, wheat, 100 ppm, Three-Day Curative (3DC), % disease control rating, read-out: SEPTTR 100 PPM 3DC
[10] = 24 h, read-out: SEPTTR 100 PPM 1DP
[11] = 72 h, read-out: SEPTTR 100 PPM 3DC

Compound	pest or weed control at 100 ppm [1, 8] [%]	pest or weed control at 100 ppm [1, 9] [%]	also measured
Nc1nc(=O)[nH]cc1F [5-FC, 5-Fluorocytosine]	–	–	% Disease Control of 5-FC ([1]; SEPTTR, wheat, 100 ppm, 3DC (3-day curative)): A (76-100); % Disease Control of 5-FC ([1]; SEPTTR, wheat, 200 ppm, 1DP (1-day protectant)): A (76-100); % Disease Control of 5-FC ([2]; 1DP (1-day protectant)): D (0-25); % Disease Control of 5-FC ([2]; 3DC (3-day curative)): C (26-50); % Disease Control of 5-FC [3]: C (26-50); % Disease Control of 5-FC ([4]; 100 ppm, 3DC (3-day curative)): B (51-75); % Disease Control of 5-FC ([4]; 200 ppm, 1DP (1-day protectant)): B (51-75); % Disease Control of 5-FC [5]: A (76-100); % Disease Control of 5-FC [6]: A (76-100); % Disease Control of 5-FC ([7]; 1DP (1-day protectant)): A (76-100); % Disease Control of 5-FC ([7]; 3DC (3-day curative)): A (76-100)
CC(=O)Nc1nc(O)ncc1F [Cmpd 2]	76 to 100	76 to 100	–
CCC(=O)Nc1nc(O)ncc1F [Cmpd 3]	76 to 100	76 to 100	–
CC(C)(C)C(=O)Nc1nc(O)ncc1F [Cmpd 4]	76 to 100	76 to 100	–
Cc1ccc(C(=O)Nc2nc(O)ncc2F)cc1 [Cmpd 5]	76 to 100	51 to 75	–
O=C(Nc1nc(O)ncc1F)c1ccc(Cl)cc1 [Cmpd 6]	76 to 100	26 to 50	–
CC(C)COC(=O)Nc1nc(O)ncc1F [Cmpd 7]	51 to 75	51 to 75	–
CCCCCC(=O)Nc1nc(O)ncc1F [Cmpd 8]	76 to 100	76 to 100	–
CCCCCCCCCCCC(=O)Nc1nc(O)ncc1F [Cmpd 9]	76 to 100	26 to 50	–
CCC(CC)C(=O)Nc1nc(O)ncc1F [Cmpd 10]	26 to 50	0 to 25	–
CCCC(=O)Nc1nc(O)ncc1F [Cmpd 11]	76 to 100	76 to 100	–
O=C(Nc1nc(O)ncc1F)c1ccccc1 [Cmpd 12]	76 to 100	76 to 100	–
CC(C)C(=O)Nc1nc(O)ncc1F [Cmpd 13]	76 to 100	76 to 100	–
COC(=O)Nc1nc(O)ncc1F [Cmpd 14]	26 to 50	0 to 25	–
Cc1ccc(OC(=O)Nc2nc(O)ncc2F)cc1 [Cmpd 15]	–	–	pest or weed control at 100 ppm [1, 10]: 76 to 100%; pest or weed control at 100 ppm [1, 11]: 51 to 75%
O=C(Nc1nc(O)ncc1F)Oc1ccccc1 [Cmpd 16]	–	–	pest or weed control at 100 ppm [1, 10]: 76 to 100%; pest or weed control at 100 ppm [1, 11]: 76 to 100%
CCONc1nc(O)ncc1F [Cmpd 17]	26 to 50	76 to 100	–
CNc1nc(O)ncc1F [Cmpd 18]	0 to 25	51 to 75	–
CCCCCOC(=O)Nc1nc(O)ncc1F [Cmpd 19]	0 to 25	0 to 25	–
COc1ccc(C(=O)Nc2nc(O)ncc2F)cc1 [Cmpd 20]	0 to 25	0 to 25	–
COc1cccc(C(=O)Nc2nc(O)ncc2F)c1 [Cmpd 21]	0 to 25	0 to 25	–
COc1ccccc1C(=O)Nc1nc(O)ncc1F [Cmpd 22]	0 to 25	0 to 25	–
O=C(Nc1nc(O)ncc1F)c1cccc(Br)c1 [Cmpd 23]	26 to 50	0 to 25	–
O=C(Nc1nc(O)ncc1F)c1ccccc1Cl [Cmpd 24]	26 to 50	26 to 50	–
